What was measured:
[1] = system: Candida albicans; experiment: Growth test in microtiter plates, HA medium, 24 h, visual evaluation; format: cell-based; design: key: +: kein Wachstum im Vergleich zur Wachstumskontrolle; -: Wachstum wie Wachstumskontrolle
[2] = system: Mucor miehei; experiment: as above; format: cell-based; design: key to Aktivität gegenüber M. miehei: +: kein Wachstum im Vergleich zur Wachstumskontrolle; -: Wachstum wie Wachstumskontrolle
[3] = system: Penicillium notatum; experiment: as above; format: cell-based; design: key: +: kein Wachstum im Vergleich zur Wachstumskontrolle; -: Wachstum wie Wachstumskontrolle
[4] = system: Paecilomyces variotii; experiment: as above; format: cell-based; design: key: +: kein Wachstum im Vergleich zur Wachstumskontrolle; -: Wachstum wie Wachstumskontrolle
[5] = system: M. grisea H2O; experiment: microbe, parasite or virus in culture; format: cell-based, Magnaporthe grisea; settings: Pyricularia grisea, H2O, 24 h, read-out: Aktivität gegenüber M. grisea H2O
[6] = system: Botrytis cinerea; experiment: microbe, parasite or virus in culture; format: cell-based; settings: for inhibition of growth at 5 µg/mL / inhibition of growth at 10 µg/mL / inhibition of growth at 25 µg/mL / inhibition of growth at 50 µg/mL: Botrytis cinerea, 24 h, read-out: Aktivität gegenüber B. cinerea
[7] = system: P. infestans; experiment: microbe, parasite or virus in culture; format: cell-based, Phytophthora infestans; settings: for inhibition of growth at 5 µg/mL / inhibition of growth at 10 µg/mL / inhibition of growth at 25 µg/mL / inhibition of growth at 50 µg/mL: Phytophthora infestans, 24 h, read-out: Aktivität gegenüber P. infestans
[8] = system: M. grisea CM; experiment: microbe, parasite or virus in culture; format: cell-based, Magnaporthe grisea; settings: Pyricularia grisea, 24 h, read-out: Aktivität gegenüber M. grisea CM
[9] = system: Lepidium sativum; experiment: Crop plant growth test, seeds on filter discs, 4 days, visual evaluation; format: in vivo
Protocol: (§1) Testsubstanzen und Kontrollen werden auf Filterrondellen in Mikrotiterplatten (48 well) vorgelegt und das verwendete Lösungsmittel (DMSO) über Lyophilisation entfernt. Anschließend werden ca. 12 Samen pro Vertiefung (Setaria italical Lepidium sativum) zugeben, mit 200 µl sterilem Leitungswasser pro Vertiefung versetzt, mit einem Deckel versehen und in einer feuchten Kammer für 4 Tage im Pflanzenbrutschrank inkubiert (16h-Licht-8h-Dunkel-Rhythmus). Die Auswertung des Tests erfolgt optisch (+: mind. 75 % Wachstumshemmung im Vergleich zur Kontrolle, -: weniger als 75 % Wachstumshemmung im Vergleich zur Kontrolle.

[10] = system: Setaria italica; experiment: as above; format: in vivo
Protocol: as §1

[11] = system: alle getesteten Pathogene; format: cell-based; settings: 5-50 µg/mL

SMILES	Aktivität gegenüber C. albicans ([1]; 10µg/mL)	Aktivität gegenüber C. albicans ([1]; 50µg/mL)	Aktivität gegenüber M. miehei ([2]; 10µg/mL)	Aktivität gegenüber M. miehei ([2]; 50µg/mL)	Aktivität gegenüber P. notatum ([3]; 10µg/mL)	Aktivität gegenüber P. notatum ([3]; 50µg/mL)	Aktivität gegenüber P. variotii ([4]; 10µg/mL)	Aktivität gegenüber P. variotii ([4]; 50µg/mL)	inhibition of growth at 5 µg/mL [5] [%]	inhibition of growth at 10 µg/mL [5] [%]	inhibition of growth at 25 µg/mL [5] [%]	inhibition of growth at 50 µg/mL [5] [%]	inhibition of growth at 5 µg/mL [6] [%]	inhibition of growth at 10 µg/mL [6] [%]	inhibition of growth at 25 µg/mL [6] [%]	inhibition of growth at 50 µg/mL [6] [%]	inhibition of growth at 5 µg/mL [7] [%]	inhibition of growth at 10 µg/mL [7] [%]	inhibition of growth at 25 µg/mL [7] [%]	inhibition of growth at 50 µg/mL [7] [%]	other results
CC(C)(C)c1cc([Se]c2cc(C(C)(C)C)cc(C(C)(C)C)c2O)c(O)c(C(C)(C)C)c1 [Verbindung 14, Bis(3,5-di-tert-butyl-2-hydroxyphenyl)selen]	-	-	-	-	-	-	-	-	0 to 25	0 to 25	0 to 25	0 to 25	0 to 25	0 to 25	0 to 25	0 to 25	0 to 25	0 to 25	0 to 25	0 to 25	inhibition of growth at 5 µg/mL [8]: 0 to 25%; inhibition of growth at 10 µg/mL [8]: 0 to 25%; inhibition of growth at 25 µg/mL [8]: 0 to 25%; inhibition of growth at 50 µg/mL [8]: 0 to 25%; Aktivität gegenüber Nutzpflanzen: L. sativum ([9]; 10µg/R): - (weniger als 75 % Wachstumshemmung im Vergleich zur Kontrolle); Aktivität gegenüber Nutzpflanzen: L. sativum ([9]; 20µg/R): - (weniger als 75 % Wachstumshemmung im Vergleich zur Kontrolle); Aktivität gegenüber Nutzpflanzen: L. sativum ([9]; 50µg/R): - (weniger als 75 % Wachstumshemmung im Vergleich zur Kontrolle); Aktivität gegenüber Nutzpflanzen: S. italica ([10]; 10µg/R): - (weniger als 75 % Wachstumshemmung im Vergleich zur Kontrolle); Aktivität gegenüber Nutzpflanzen: S. italica ([10]; 20µg/R): - (weniger als 75 % Wachstumshemmung im Vergleich zur Kontrolle); Aktivität gegenüber Nutzpflanzen: S. italica ([10]; 50µg/R): - (weniger als 75 % Wachstumshemmung im Vergleich zur Kontrolle); Aktivität im Wachstums- und Keimungshemmungstest gegen die getesteten Pathogene [11]: weder im Wachstums- noch im Keimungshemmungstest im verwendeten Konzentrationsbereich eine entsprechende Aktivität
Cc1cc([Se]c2cc(C)c(O)c(C)c2)cc(C)c1O [Verbindung 19, Bis(3,5-dimethyl-4-hydroxyphenyl)selen]	-	-	+	+	-	+	-	-	> 75	> 75	> 75	> 75	25 to 50	> 75	> 75	0 to 25	0 to 25	50 to 75	50 to 75	0 to 25	mikrobizide Wirksamkeit gegenüber B. cinerea [6]: mikrobizide Wirksamkeit; inhibition of growth at 5 µg/mL [8]: > 75%; inhibition of growth at 10 µg/mL [8]: > 75%; inhibition of growth at 25 µg/mL [8]: > 75%; inhibition of growth at 50 µg/mL [8]: > 75%; Aktivität gegenüber Nutzpflanzen: L. sativum ([9]; 10µg/R): - (weniger als 75 % Wachstumshemmung im Vergleich zur Kontrolle); Aktivität gegenüber Nutzpflanzen: L. sativum ([9]; 20µg/R): - (weniger als 75 % Wachstumshemmung im Vergleich zur Kontrolle); Aktivität gegenüber Nutzpflanzen: L. sativum ([9]; 50µg/R): - (weniger als 75 % Wachstumshemmung im Vergleich zur Kontrolle); Aktivität gegenüber Nutzpflanzen: S. italica ([10]; 10µg/R): + (mind. 75 % Wachstumshemmung im Vergleich zur Kontrolle); Aktivität gegenüber Nutzpflanzen: S. italica ([10]; 20µg/R): + (mind. 75 % Wachstumshemmung im Vergleich zur Kontrolle); Aktivität gegenüber Nutzpflanzen: S. italica ([10]; 50µg/R): + (mind. 75 % Wachstumshemmung im Vergleich zur Kontrolle); Effekt auf S. italica ([10]; […]): wachstumshemmenden Effekt; Aktivität im Wachstums- und Keimungshemmungstest gegen die getesteten Pathogene [11]: deutliche Aktivität gegenüber allen getesteten Pathogenen, mit Ausnahme von C. albicans
COc1cc(C)cc([Se]c2cc(C)cc(OC)c2O)c1O [Verbindung 20, Bis(2-hydroxy-3-methoxy-5-methylphenyl)selen]	-	-	-	-	-	-	-	-	25 to 50	> 75	> 75	> 75	0 to 25	0 to 25	0 to 25	0 to 25	0 to 25	0 to 25	> 75	> 75	inhibition of growth at 5 µg/mL [8]: 25 to 50%; inhibition of growth at 10 µg/mL [8]: > 75%; inhibition of growth at 25 µg/mL [8]: > 75%; inhibition of growth at 50 µg/mL [8]: > 75%; Aktivität gegenüber Nutzpflanzen: L. sativum ([9]; 10µg/R): - (weniger als 75 % Wachstumshemmung im Vergleich zur Kontrolle); Aktivität gegenüber Nutzpflanzen: L. sativum ([9]; 20µg/R): - (weniger als 75 % Wachstumshemmung im Vergleich zur Kontrolle); Aktivität gegenüber Nutzpflanzen: L. sativum ([9]; 50µg/R): - (weniger als 75 % Wachstumshemmung im Vergleich zur Kontrolle); Aktivität gegenüber Nutzpflanzen: S. italica ([10]; 10µg/R): - (weniger als 75 % Wachstumshemmung im Vergleich zur Kontrolle); Aktivität gegenüber Nutzpflanzen: S. italica ([10]; 20µg/R): - (weniger als 75 % Wachstumshemmung im Vergleich zur Kontrolle); Aktivität gegenüber Nutzpflanzen: S. italica ([10]; 50µg/R): - (weniger als 75 % Wachstumshemmung im Vergleich zur Kontrolle); Aktivität im Wachstums- und Keimungshemmungstest gegen die getesteten Pathogene [11]: fungizider Effekt
COc1cc(OC)c([Se]c2cc(OC)c(OC)cc2OC)cc1OC [Verbindung 26, Bis(2,4,5-trimethoxyphenyl)selen]	-	-	-	+	-	-	-	-	25 to 50	> 75	> 75	> 75	0 to 25	0 to 25	0 to 25	0 to 25	0 to 25	0 to 25	0 to 25	0 to 25	Aktivität im Wachstumstest mit M. miehei ([2]; […]): mikrobizide Wirksamkeit; Wirksamkeit gegenüber P. infestans ([7]; […]): keine Wirkung; inhibition of growth at 5 µg/mL [8]: 25 to 50%; inhibition of growth at 10 µg/mL [8]: > 75%; inhibition of growth at 25 µg/mL [8]: > 75%; inhibition of growth at 50 µg/mL [8]: > 75%; Aktivität gegenüber Nutzpflanzen: L. sativum ([9]; 10µg/R): - (weniger als 75 % Wachstumshemmung im Vergleich zur Kontrolle); Aktivität gegenüber Nutzpflanzen: L. sativum ([9]; 20µg/R): - (weniger als 75 % Wachstumshemmung im Vergleich zur Kontrolle); Aktivität gegenüber Nutzpflanzen: L. sativum ([9]; 50µg/R): - (weniger als 75 % Wachstumshemmung im Vergleich zur Kontrolle); Aktivität gegenüber Nutzpflanzen: S. italica ([10]; 10µg/R): - (weniger als 75 % Wachstumshemmung im Vergleich zur Kontrolle); Aktivität gegenüber Nutzpflanzen: S. italica ([10]; 20µg/R): - (weniger als 75 % Wachstumshemmung im Vergleich zur Kontrolle); Aktivität gegenüber Nutzpflanzen: S. italica ([10]; 50µg/R): - (weniger als 75 % Wachstumshemmung im Vergleich zur Kontrolle); Aktivität im Wachstums- und Keimungshemmungstest gegen die getesteten Pathogene [11]: fungizider Effekt

From patent EP3262942A1, “SELENODIARYLS FOR USE AS MICROBICIDE OR AS MEDICINE” (Evonik Degussa GmbH, priority 2016, dated 2018)
